One may read the MIC as the lowest concentration found to suppress growth.

For eleven compounds, MIC results are on record in DBAASP.

Among the test systems are Bacillus subtilis; Escherichia coli B; Pseudomonas aeruginosa; Staphylococcus aureus; Botrytis cinerea; Escherichia coli; Klebsiella pneumoniae; Acinetobacter baumannii; Escherichia coli K88; Escherichia coli K99; Escherichia coli UB1005; Bacillus subtilis 168.
Test in all cases: ≥ marks a high value that may be exact or a test limit, other limits are often not marked, values filed in µg/mL are converted to µM
Test [1] relates to Candida albicans F7-39/IDE99.
For test [2], the system named is Pseudomonas aeruginosa Ps4.
In test [3] the test system is Candida albicans ATCC 10231.
Test [4] concerns Escherichia coli ATCC 11775.
Test [5] concerns Staphylococcus aureus ATCC 12600.
Test [6] concerns Escherichia coli ATCC 25922.
Test [7] relates to Escherichia coli ATCC 8739.
The subject of test [8] is Staphylococcus aureus ATCC 25923.
In test [9] the test system is Pseudomonas aeruginosa ATCC 27853.
The test system of test [10] is Pseudomonas aeruginosa CICC 21625.
Test [11] has as its system Pseudomonas aeruginosa CICC 21630.
The subject of test [12] is Pseudomonas aeruginosa PAO1.
In test [13] the test system is Salmonella enterica subsp. enterica serovar Pullorum C79-13.
The test system of test [14] is Salmonella enterica subsp. enterica serovar Typhimurium ATCC 14028.
Test [15] relates to Salmonella enterica subsp. enterica serovar Typhimurium C77-31.

Values after ≈ are worked out from the molar mass of the structure shown.

For `CC[C@H](C)[C@H](NC(=O)[C@H](C)NC(=O)[C@H](C)NC(=O)[C@H](CC(C)C)NC(=O)[C@@H](NC(=O)[C@H](CCCCN)NC(=O)[C@H](CCCN=C(N)N)NC(=O)[C@@H]1CCCN1C(=O)[C@H](CC(C)C)NC(=O)CN)[C@@H](C)CC)C(=O)N[C@@H](C)C(=O)N[C@@H](CCCCN)C(=O)N[C@@H](CCCCN)C(=O)N[C@@H](CCCCN)C(N)=O` [GLPRKILAAIAKKK], the MIC in the test with Bacillus subtilis is not below 35 µM; in [1] it was not below 100 µM; in the test with Escherichia coli B it was not below 100 µM; against Pseudomonas aeruginosa, more than 100 µM; against Staphylococcus aureus, more than 100 µM.

In test [2], `CC[C@H](C)[C@H](N)C(=O)N[C@@H](Cc1c[nH]c2ccccc12)C(=O)N[C@@H](CCC(N)=O)C(=O)N[C@@H](CCCN=C(N)N)C(=O)N[C@@H](CC(N)=O)C(=O)N[C@H](C(=O)N[C@@H](CCCN=C(N)N)C(=O)N[C@H](C(=O)N[C@@H](CCCN=C(N)N)C(=O)N[C@@H](CCCN=C(N)N)C(N)=O)[C@@H](C)CC)[C@@H](C)CC` [IWQRNIRIRR] had an MIC not below 177 µM.

As for `CC[C@H](C)[C@H](NC(=O)[C@H](C)NC(=O)[C@H](CO)NC(=O)[C@@H](NC(=O)[C@@H](NC(=O)[C@@H](NC(=O)[C@H](Cc1cnc[nH]1)NC(=O)[C@H](CC(C)C)NC(=O)[C@H](CC(=O)O)NC(=O)[C@@H](N)CCCCN)[C@@H](C)O)C(C)C)C(C)C)C(=O)N[C@@H](CC(C)C)C(=O)N[C@@H](CCC(N)=O)C(=O)N[C@@H](C)C(=O)N[C@@H](CC(C)C)C(N)=O` [KDLHTVVSAILQAL], the MIC in the test on Botrytis cinerea was 5.31 µM (≈ 7.99 µg/mL); in test [3], 33.2 µM (≈ 50 µg/mL); in test [4], not below 66.3 µM; in [5] it was not below 66.3 µM.

`CC[C@H](C)[C@H](NC(=O)[C@H](CCCN=C(N)N)NC(=O)[C@H](C)NC(=O)[C@H](C)NC(=O)[C@H](CC(C)C)NC(=O)[C@H](CCCCN)NC(=O)[C@H](CCCCN)NC(=O)[C@H](CCCCN)NC(=O)[C@H](CCSC)NC(=O)[C@@H]1CCCN1)C(=O)N[C@@H](CC(C)C)C(=O)N[C@@H](C)C(=O)N[C@@H](CCCCN)C(=O)N[C@H](C(=O)N[C@H](C(=O)N[C@@H](C)C(=O)N1CCC[C@H]1C(=O)N[C@H](C(=O)N[C@@H](Cc1c[nH]c2ccccc12)C(=O)O)C(C)C)C(C)C)[C@@H](C)CC` [PMKKKLAARILAKIVAPVW]: the MIC in test [6] is 11.7 µM (≈ 25 µg/mL); in test [7] it was 7.5 µM (≈ 16 µg/mL); in the test with Escherichia coli it was 30 µM (≈ 64 µg/mL); against Klebsiella pneumoniae, 60.9 µM (≈ 130 µg/mL); in test [8], more than 120 µM.

Turning to `CC[C@H](C)[C@H](N)C(=O)N[C@@H](CC(C)C)C(=O)N1CCC[C@H]1C(=O)N[C@H](C(=O)N[C@@H](CC(C)C)C(=O)N[C@@H](C)C(=O)N1CCC[C@H]1C(=O)N[C@@H](CC(C)C)C(=O)N[C@H](C(=O)NCC(=O)NCC(=O)N[C@@H](CC(C)C)C(=O)N[C@@H](CC(C)C)C(N)=O)[C@@H](C)CC)[C@@H](C)CC` [ILPILAPLIGGLL], the MIC in test [4] and in [5] was not below 100 µM each time.

With `CC(C)C[C@H](NC(=O)[C@H](C)NC(=O)[C@H](CO)NC(=O)[C@H](C)NC(=O)[C@@H](NC(=O)[C@H](CCCCN)NC(=O)[C@H](CCCCN)NC(=O)[C@@H](NC(=O)[C@H](CC(C)C)NC(=O)CNC(=O)[C@H](CC(C)C)NC(=O)[C@H](CC(C)C)NC(=O)[C@H](CC(=O)O)NC(=O)[C@@H](N)Cc1ccccc1)C(C)C)C(C)C)C(N)=O` [FDLLGLVKKVASAL], the MIC in the test with Botrytis cinerea was 5 µM (≈ 7.36 µg/mL); in test [3] it was 100 µM (≈ 147 µg/mL); in test [4], not below 100 µM; in [5], not below 50 µM.

On to `CC(C)C[C@H](NC(=O)[C@@H]1CCCN1C(=O)[C@H](CCCCN)NC(=O)[C@H](CC(C)C)NC(=O)[C@H](CC(C)C)NC(=O)[C@@H]1CCCN1C(=O)[C@H](CCCCN)NC(=O)[C@H](CC(C)C)NC(=O)[C@H](CC(C)C)NC(=O)[C@@H]1CCCN1C(=O)[C@H](CCCCN)NC(=O)[C@H](CC(C)C)NC(=O)[C@H](CC(C)C)NC(=O)[C@@H]1CCCN1C(=O)[C@H](CCCCN)NC(=O)[C@@H](N)CC(C)C)C(N)=O` [LKPLLKPLLKPLLKPL], for which the minimal inhibitory concentration (MIC) in the test on Acinetobacter baumannii came out at 4 µM (≈ 7.29 µg/mL); in test [6] it was 16 µM (≈ 29.2 µg/mL); in the test on Escherichia coli K88 it was 16 µM (≈ 29.2 µg/mL); in the test with Escherichia coli K99, 16 µM (≈ 29.2 µg/mL); in the test with Escherichia coli UB1005, 16 µM (≈ 29.2 µg/mL); against Escherichia coli, 32 µM (≈ 58.4 µg/mL). Further, the MIC against Klebsiella pneumoniae was more than 64 µM; in test [9], more than 64 µM; in test [10], not below 64 µM; in test [11], not below 64 µM; in test [12] it was more than 64 µM; in the test with Pseudomonas aeruginosa, more than 64 µM. Also, the MIC in test [13] was not below 32 µM; in test [14], more than 64 µM; in test [15], not below 64 µM.

As to `CC[C@H](C)[C@H](NC(=O)[C@H](CC(N)=O)NC(=O)[C@H](CCCN=C(N)N)NC(=O)[C@H](CCC(N)=O)NC(=O)[C@H](Cc1c[nH]c2ccccc12)NC(=O)[C@@H](NC(=O)[C@@H](N)Cc1ccccc1)[C@@H](C)CC)C(=O)N[C@@H](CCCN=C(N)N)C(=O)N[C@@H](CCCCN)C(=O)N[C@H](C(=O)N[C@@H](CCCN=C(N)N)C(N)=O)C(C)C` [FIWQRNIRKVR], the MIC in [2] was not below 165 µM.

In test [2], `CC[C@H](C)[C@H](NC(=O)[C@H](CCCN=C(N)N)NC(=O)[C@H](Cc1c[nH]c2ccccc12)NC(=O)CNC(=O)[C@H](CCCN=C(N)N)NC(=O)[C@H](Cc1c[nH]c2ccccc12)NC(=O)[C@@H](N)Cc1ccccc1)C(=O)N[C@@H](CCCN=C(N)N)C(=O)N[C@@H](CCCN=C(N)N)C(N)=O` [FWRGWRIRR] returned an MIC not below 93.8 µM.

Turning to `CC[C@H](C)[C@H](NC(=O)[C@H](Cc1cnc[nH]1)NC(=O)[C@H](CCCCN)NC(=O)[C@H](CC(C)C)NC(=O)[C@H](CC(C)C)NC(=O)[C@H](CCCCN)NC(=O)[C@H](CCSC)NC(=O)[C@H](Cc1c[nH]c2ccccc12)NC(=O)[C@H](CCCCN)NC(=O)CN)C(=O)N[C@@H](CC(C)C)C(=O)N[C@@H](CCCCN)C(N)=O` [GKWMKLLKHILK], the MIC was 0.8 µM (≈ 1.2 µg/mL) in the test on Bacillus subtilis 168; 4.5 µM (≈ 6.72 µg/mL) in test [1]; 2.5 µM (≈ 3.73 µg/mL) against Escherichia coli B; 10.7 µM (≈ 16 µg/mL) in the test with Pseudomonas aeruginosa; 4.5 µM (≈ 6.72 µg/mL) in the test with Staphylococcus aureus.

`CC[C@H](C)[C@H](NC(=O)[C@H](CC(N)=O)NC(=O)[C@H](CCCN=C(N)N)NC(=O)[C@H](CCC(N)=O)NC(=O)[C@H](Cc1c[nH]c2ccccc12)NC(=O)[C@@H](N)CCCN=C(N)N)C(=O)N[C@@H](CCCN=C(N)N)C(=O)N[C@@H](CCCCN)C(=O)N[C@@H](Cc1ccc(O)cc1)C(=O)N[C@@H](CCCN=C(N)N)C(=O)N[C@@H](CCCN=C(N)N)C(N)=O` [RWQRNIRKYRR]: in test [2], the MIC was not below 153 µM.
